Source: US20240358889A1, “PEPTIDE-CONTAINING HYBRID HYDROGEL FOR BONE REGENERATION” (Ramot at Tel-Aviv University Ltd., priority 2022, published 2024)
Ends that are not written are not given here. * marks the point of attachment. Fmoc = O=C(OCC1c2ccccc2-c2ccccc21)*

Test: Rheological studies of the hydrogel (strain, frequency, shear rate, time sweep, step strain)
Format: physicochemical
Conditions: fixed strain 0.1%, frequency 5 Hz, 37° C.

storage modulus G′: 4,708 Pa
Substance: Fmoc-Phe-Phe [FmocFF]
